Test results: patent US8722343B2, “Methods and compositions for the diagnosis and treatment of diabetes” (priority 2008, dated 2014)

Legend:
Assay type in all cases: cell-based
[1] = tested on: βTC3 cells; assay: TUNEL apoptosis assay in βTC3 cells; settings: 0.1 mM DHK for five days
Method: 1B: Glutamate overstimulation causes increased β-cell apoptosis. 24 hours after plating, βTC3 cells were incubated for five days with 0.5 mM glutamate, and cell apoptosis was assessed by TUNEL assay. The cell nuclei were labelled with PrI. Histograms on the right represent TUNEL positive cells per field, and are the mean±SE of two independent experiments performed in duplicate.
6C TUNEL assay: 24 hours after plating, βTC3 cells were incubated for five days with 0.1 mM DHK, and cell apoptosis was assessed by TUNEL assay. Cell nuclei were labelled with PrI. Data are presented as TUNEL positive cells per field (histograms on the right), and are the mean±SE of two independent experiments performed in duplicate. * P<0.05
6D ShRNA interference. βTC3 cells were transfected with two different shRNA directed against GLT1 (Sh1, Sh3) or a control shRNA (ShC), and three days after transfection, cells were assayed for 3[H]-D-aspartate uptake (b) or lysed and the presence of GLT assayed by western blotting (a) or fixed and processed for TUNEL (c).
Apoptosis of β-TC3 cells was estimated using the terminal deoxynucleotidyltransferase-mediated dUTP-biotin nick end-labelling assay (TUNEL). […] Tunel-positive cells were counted by two independent observers using a 40× objective from at least 40 randomly selected fields per coverslip. […]

[2] = molecular target: T1, GLT1 (Mus musculus, UniProt P43006); assay: Na-dependent [3H]-D-aspartate uptake in βTC3 cells
T1 construct: Since GLT1 is endogenously expressed in beta-TC3; endogenous in cells; host or cells: βTC3 mouse pancreatic beta-cell line
Method: 2D: 3H-D-Aspartate uptake. Four days after plating the Na-dependent (NaCl) and Na-independent (ChCl) [3H]-D-Aspartate uptake was measured in αTC1 and βTC3 cells. Data are expressed as cpm/well/10 min and represent the mean±SE of at least three independent experiments performed in triplicate. * (NaCl vs ChCl) P<0.001; ° (DHK versus control) P<0.001.
3×10^5 βTC3 cells/well were plated onto 24-well culture plates and the Na-dependent [3H]-D-Aspartate uptake was measured in the presence or the absence of increasing DHK concentrations (0.05-0.3 mM). Data are expressed as cpm/well/10 min and represent the mean±SE of at least three independent experiments performer in triplicate. * (DHK versus controls) P<0.001.
150.000 cells/well were plated in a 24-wells plate, and grown until confluence. After two washes in sodium-free solution (150 mM ChCl, 2 mM KCl, 1 mM CaCl2, 1 mM MgCl2, 10 mM Hepes pH 7.5), cells were incubated for 10 minutes in 200 μl of Na^+-dependent (150 mM NaCl 2 mM KCl, 1 mM CaCl2, 1 mM MgCl2, 10 mM Hepes pH 7.5) or Na^+-independent (sodium-free solution) uptake solution containing 5 μCi/ml of [^3H]D-Aspartic acid (specific activity 37 Ci/mmol; Amersham Biosciences). The amino acid uptake was stopped by washing the cells twice in ice-cold sodium-free solution. Cells were dissolved in 150 μl of SDS 1% for liquid scintillation counting. […]

[3] = tested on: human isolated islets; settings: 16.7 mM glucose; DHK (0.3 mM) or L-glutamate (0.5 mM) alone
Method: FIG. 5: GLT1 CONTROLS HORMONE SECRETION IN HUMAN ISOLATED ISLETS. 48 hours after isolation, 20 human islets per tube were exposed to 3.3 or 16.7 mM glucose in the absence and the presence of either L-glutamate (0.5 mM), DHK (0.3 mM) or both L-glutamate and DHK, and insulin secretion measured. Levels of secreted insulin from islets were normalized to total insulin content. Data are expressed as % of insulin content and represent the mean±SD of two independent experiments performer in duplicate.
Insulin content and secretion were assessed on 20 islets, using a Micro-particle Enzyme Immunoassay (MEIA insulin, IMX System, Abbott Laboratories, Abbott Park, Ill., USA). Insulin secretion in response to increasing glucose concentrations, glutamate or DHK treatment was assessed by static incubation as previously described (Federici et al, 2000). Briefly, batches of 20 islets were pre-incubated in 1 ml of Krebs-Ringer buffer (KRB) supplemented with 3, 3 or 16.7 mM glucose for 30 min. Then the supernatants were replaced with Kreb's buffer containing 3, 3 or 16.7 mM glucose plus glutamate or the specific GLT1 inhibitor DHK (Sigma, St Louis, Mo., USA), as indicated. After a 30-min incubation at 37° C., the medium was removed and frozen for immunoassays. At the end of incubation, islets were lysed in lyses buffer and the total insulin content determined by immunoassay. […]

T1 sequence (P43006 1-569 isoform P43006-2): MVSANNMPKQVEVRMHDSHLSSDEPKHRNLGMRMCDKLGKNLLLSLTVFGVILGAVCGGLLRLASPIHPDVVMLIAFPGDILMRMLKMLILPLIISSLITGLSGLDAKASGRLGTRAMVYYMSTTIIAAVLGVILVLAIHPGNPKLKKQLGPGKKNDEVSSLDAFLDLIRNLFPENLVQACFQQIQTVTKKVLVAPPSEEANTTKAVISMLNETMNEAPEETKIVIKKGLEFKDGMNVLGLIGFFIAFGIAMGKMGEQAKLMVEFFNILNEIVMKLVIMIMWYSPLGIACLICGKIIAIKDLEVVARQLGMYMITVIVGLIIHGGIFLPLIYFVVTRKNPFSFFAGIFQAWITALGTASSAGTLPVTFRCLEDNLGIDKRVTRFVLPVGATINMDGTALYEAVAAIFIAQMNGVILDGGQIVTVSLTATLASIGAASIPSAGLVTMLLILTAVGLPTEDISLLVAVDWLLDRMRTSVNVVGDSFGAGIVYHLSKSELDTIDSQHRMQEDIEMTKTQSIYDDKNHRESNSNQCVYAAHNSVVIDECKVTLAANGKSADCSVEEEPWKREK

For CC(C)[C@H]1CN[C@H](C(=O)O)[C@H]1CC(=O)O [DHK, Dihydrokainic Acid], the “cause of cytotoxicity by TUNEL assay” value [1] was “due to apoptosis”, the Na-dependent aspartate uptake ([2]; 1 mM DHK) was “completely inhibited” and the IC50 ([2]; DHK 0.05-0.3 mM, read-out: IC50, inhibition of Na-dependent D-aspartate uptake) was 50 µM. The “effect on insulin secretion” value [3] was “No effect”.
